Experimental data reported in US10640495B2, “Heterocycle derivatives having TrkA inhibitory activity” (Shionogi & Co., Ltd., priority 2015, dated 2020).
Where two headings read alike, the source gives them in different places. Values belong to the compound of their own block, whether it stands above or below them.

Molecular target: human TrkA (Homo sapiens (Human), UniProt P04629)
Test: Human TrkA inhibition assay (Test Example 2)
Format: biochemical
Method in brief: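 Recombinant TrkA (1 nmol/L) was preincubated 15 min at room temperature with compound in HEPES/MgCl2/DTT buffer, then reacted with FL-peptide 27 (1.5 μmol/L) and ATP (500 μmol/L) for 120 min at 37 °C. After EDTA stop, substrate phosphorylation was read by microfluidic mobility shift. IC50 came from logistic regression over 3-fold dilution series.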

[1] = Table 153, human TrkA inhibition, read-out: IC50
[2] = Table 155, human TrkA inhibition, read-out: IC50
[3] = Table 154, human TrkA inhibition, read-out: IC50
[4] = human TrkA 1 nmol/L, ATP 500 μmol/L, 120 min at 37° C., read-out: IC50 values (TrkA phosphorylation inhibition)
[5] = Table 156, human TrkA inhibition, read-out: IC50
[6] = Table 157, human TrkA inhibition, read-out: IC50

human TrkA, sequence (P04629 440-796): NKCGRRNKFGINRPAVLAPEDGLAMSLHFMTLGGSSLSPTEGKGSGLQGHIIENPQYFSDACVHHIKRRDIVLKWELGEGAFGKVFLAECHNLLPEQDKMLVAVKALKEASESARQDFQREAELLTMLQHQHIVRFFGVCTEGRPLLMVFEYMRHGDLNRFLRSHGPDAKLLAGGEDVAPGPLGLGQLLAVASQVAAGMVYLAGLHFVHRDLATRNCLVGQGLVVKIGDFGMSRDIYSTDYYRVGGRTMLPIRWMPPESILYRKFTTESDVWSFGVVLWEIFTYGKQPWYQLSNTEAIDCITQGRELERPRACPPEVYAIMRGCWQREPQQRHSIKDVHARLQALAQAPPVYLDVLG

Structure (SMILES): COCCN1C[C@@H](NC(=O)Nc2c(C)c(-c3cnc4c(c3)nnn4C)nn2-c2ccccc2)[C@H](c2cccc(F)c2)O1 (racemic) [Compound I-142]
IC50 [1]: < 100 nM

Structure (SMILES): COCCN1C[C@@H](NC(=O)Nc2c(C)c(-c3ccnc(C(=O)NO)c3)nn2-c2ccccc2)[C@H](c2ccc(F)c(F)c2)O1 (racemic) [Compound I-195]
IC50 [3]: < 100 nM

Structure (SMILES): COCCN1C[C@@H](NC(=O)Nc2c(C)c(-c3cc(C(=O)NC(C)(C)C(F)(F)F)c(=O)n(C)c3)nn2-c2ccccc2)[C@H](c2ccnc(F)c2)O1 (racemic) [Compound I-390]
IC50 [2]: < 100 nM

Structure (SMILES): COCCN1C[C@@H](NC(=O)Nc2c(C)c(-c3cc(C(=O)NC4CCOCC4)c(=O)n(C)c3)nn2-c2ccccc2)[C@H](c2ccnc(F)c2)O1 (racemic) [Compound I-108]
IC50 [4]: 1 nM

Structure (SMILES): COCC[C@@H]1C[C@@H](NC(=O)Nc2c(C)c(-c3cnc(C)nc3)nn2-c2ccccc2)[C@H](c2ccnc(F)c2)O1 (racemic) [Compound I-96]
IC50 [4]: 15 nM

Structure (SMILES): Cc1c(OCC2CCN(C)CC2)nn(-c2ccccc2)c1NC(=O)N[C@@H]1CN(CC(F)F)O[C@H]1c1ccc(F)c(F)c1 (racemic) [Compound I-568]
IC50 [5]: < 100 nM

Structure (SMILES): COCC[C@@H]1C[C@@H](NC(=O)Nc2c(C)c(-c3cnc(Cl)nc3)nn2-c2ccccc2)[C@H](c2ccnc(F)c2)O1 [Compound I-248]
IC50 [3]: < 100 nM

Structure (SMILES): CCN1CCC(COc2nn(-c3ccccc3)c(NC(=O)N[C@@H]3CN(CC)O[C@H]3c3ccc(F)c(F)c3)c2C)CC1 (racemic) [Compound I-609]
IC50 [6]: < 100 nM

Structure (SMILES): COCCN1C[C@@H](NC(=O)Nc2c(C)c(-c3cnc4c(c3)oc(=O)n4C)nn2-c2ccccc2)[C@H](c2cnc(F)c(F)c2)O1 (racemic) [Compound I-123]
IC50 [1]: < 100 nM

Structure (SMILES): CCN1C[C@@H](NC(=O)Nc2c(C)c(OCc3cc(=O)ccn3C)nn2-c2ccccc2)[C@H](c2ccc(F)c(F)c2)O1 (racemic) [Compound I-644]
IC50 [6]: < 100 nM

Structure (SMILES): COCCN1C[C@@H](NC(=O)Nc2c(C)c(-c3cnn(C)c3)nn2-c2ccccc2)[C@H](c2cccc(F)c2)O1 (racemic) [Compound I-139]
IC50 [1]: < 100 nM

Structure (SMILES): COCCC1C[C@@H](NC(=O)Nc2c(C)c(-c3cnc(COC(=O)C(C)(C)C)nc3)nn2-c2ccccc2)[C@H](c2ccccc2)O1 (stereo partly drawn) [Compound I-294]
IC50 [3]: < 100 nM

Structure (SMILES): COCCN1C[C@@H](NC(=O)Nc2c(C)c(-c3cnc(C)c(N=S(C)(C)=O)c3)nn2-c2ccccc2)[C@H](c2ccc(F)c(F)c2)O1 (racemic) [Compound I-176]
IC50 [1]: < 100 nM

Structure (SMILES): CCN1C[C@@H](NC(=O)Nc2c(C)c(OCC(=O)NC3CC3)nn2-c2ccccc2)[C@H](c2ccc(F)c(F)c2)O1 (racemic) [Compound I-648]
IC50 [6]: < 100 nM

Structure (SMILES): CNC(=O)c1cc(-c2nn(-c3ccccc3)c(NC(=O)N[C@@H]3CN(CCF)O[C@H]3c3ccc(F)c(F)c3)c2C)cnc1OC (racemic) [Compound I-550]
IC50 [5]: < 100 nM

Structure (SMILES): COCCN1C[C@@H](NC(=O)Nc2c(C)c(-c3cnc(C)nc3)nn2-c2ccccc2)[C@H](c2ccc(F)cc2)O1 (racemic) [Compound I-117]
IC50 [1]: < 100 nM

Structure (SMILES): CCN1C[C@@H](NC(=O)Nc2c(C)c(-c3ccn(C)c(=O)c3)nn2-c2ccccc2)[C@H](c2ccc(F)c(F)c2)O1 (racemic) [Compound I-543]
IC50 [5]: < 100 nM

Structure (SMILES): COCCN1C[C@@H](NC(=O)Nc2c(C)c(-c3cnc(OC)c(C(=O)NOCC(C)(C)O)c3)nn2-c2ccccc2)[C@H](c2cnc(F)c(F)c2)O1 (racemic) [Compound I-318]
IC50 [3]: < 100 nM

Structure (SMILES): CCN1C[C@@H](NC(=O)Nc2c(C)c(OCC3CCN(C(=O)CO)CC3)nn2-c2ccccc2)[C@H](c2ccc(F)c(F)c2)O1 (racemic) [Compound I-607]
IC50 [6]: < 100 nM

Structure (SMILES): Cc1c(-c2cnc3c(cnn3C)c2)nn(-c2ccccc2)c1NC(=O)N[C@@H]1CN(CC(C)(C)CN(C)C)O[C@H]1c1ccc(F)c(F)c1 (racemic) [Compound I-206]
IC50 [3]: 100 to 1000 nM

Structure (SMILES): COCCN1C[C@@H](NC(=O)Nc2c(C)c(-c3cnc(N4CCNOCC4)nc3)nn2-c2ccccc2)[C@H](c2ccnc(F)c2)O1 (racemic) [Compound I-507]
IC50 [2]: < 100 nM

Structure (SMILES): CCN1C[C@@H](NC(=O)Nc2c(C)c(OCC(=O)N(C)C)nn2-c2ccccc2)[C@H](c2ccc(F)c(F)c2)O1 (racemic) [Compound I-647]
IC50 [6]: < 100 nM

Structure (SMILES): COCC[C@@H]1C[C@@H](NC(=O)Nc2c(C)c(-c3cnc(N(C(=O)OC(C)(C)C)C4CC4)nc3)nn2-c2ccccc2)[C@H](c2ccnc(F)c2)O1 [Compound I-290]
IC50 [3]: < 100 nM

More lines, now with the values ahead:

IC50 [2]: < 100 nM
Structure (SMILES): COCCN1C[C@@H](NC(=O)Nc2c(C)c(-c3cnc4c(c3)NC(=O)CN4)nn2-c2ccccc2)[C@H](c2ccnc(F)c2)O1 (racemic) [Compound I-357]

IC50 [2]: < 100 nM
Structure (SMILES): COCCN1C[C@@H](NC(=O)Nc2c(C)c(-c3cnc4c(cnn4CC(=O)OC)c3)nn2-c2ccccc2)[C@H](c2ccnc(F)c2)O1 (racemic) [Compound I-446]

IC50 [2]: < 100 nM
Structure (SMILES): COCCN1C[C@@H](NC(=O)Nc2c(C)c(-c3ccc4c(c3)NCCO4)nn2-c2ccccc2)[C@H](c2ccnc(F)c2)O1 (racemic) [Compound I-382]

IC50 [6]: < 100 nM
Structure (SMILES): COCCN1C[C@@H](NC(=O)Nc2c(C)c(-c3ccnc(CO)c3)nn2-c2ccccc2)[C@H](c2ccc(F)c(F)c2)O1 [Compound I-617]

IC50 [2]: < 100 nM
Structure (SMILES): COCCN1C[C@@H](NC(=O)Nc2c(C)c(-c3cnc(OC)c(F)c3)nn2-c2ccccc2)[C@H](c2ccnc(F)c2)O1 (racemic) [Compound I-367]

IC50 [3]: < 100 nM
Structure (SMILES): COCCN1C[C@@H](NC(=O)Nc2c(C)c(-c3cnc(S(C)(=O)=O)nc3)nn2-c2ccccc2)[C@H](c2ccnc(F)c2)O1 (racemic) [Compound I-270]

IC50 [3]: < 100 nM
Structure (SMILES): COCCN1C[C@@H](NC(=O)Nc2c(C)c(-c3cnc4c(c3)c(=O)on4C)nn2-c2ccccc2)[C@H](c2ccnc(F)c2)O1 (racemic) [Compound I-269]

IC50 [3]: < 100 nM
Structure (SMILES): CCOc1ncc(-c2nn(-c3ccccc3)c(NC(=O)N[C@@H]3CN(CCOC)O[C@H]3c3ccnc(F)c3)c2C)cn1 (racemic) [Compound I-196]

IC50 [3]: < 100 nM
Structure (SMILES): COCCN1C[C@@H](NC(=O)Nc2c(C)c(-c3ccc4c(c3)CS(=O)(=O)N4C)nn2-c2ccccc2)[C@H](c2ccnc(F)c2)O1 (racemic) [Compound I-262]

IC50 [1]: < 100 nM
Structure (SMILES): COCCN1C[C@@H](NC(=O)Nc2c(C)c(-c3ccn4c(C)nnc4c3)nn2-c2ccccc2)[C@H](c2ccnc(F)c2)O1 (racemic) [Compound I-155]

IC50 [2]: < 100 nM
Structure (SMILES): COCCN1C[C@@H](NC(=O)Nc2c(C)c(-c3cnc(OC4CCN(C)CC4)nc3)nn2-c2ccccc2)[C@H](c2ccnc(F)c2)O1 (racemic) [Compound I-381]

IC50 [1]: < 100 nM
Structure (SMILES): COCCN1C[C@@H](NC(=O)Nc2c(C)c(-c3cnc(C4CC4)nc3)nn2-c2ccccc2)[C@H](c2ccnc(F)c2)O1 (racemic) [Compound I-115]

IC50 [2]: < 100 nM
Structure (SMILES): COCCN1C[C@@H](NC(=O)Nc2c(C)c(-c3cnc4c(c3)CN(C)C4=O)nn2-c2ccccc2)[C@H](c2ccnc(F)c2)O1 (racemic) [Compound I-343]

IC50 [2]: < 100 nM
Structure (SMILES): COCCN1C[C@@H](NC(=O)Nc2c(C)c(-c3cnc(OC(F)F)nc3)nn2-c2ccccc2)[C@H](c2ccnc(F)c2)O1 (racemic) [Compound I-328]

IC50 [2]: < 100 nM
Structure (SMILES): COCCN1C[C@@H](NC(=O)Nc2c(C)c(OCc3ccon3)nn2-c2ccccc2)[C@H](c2ccnc(F)c2)O1 (racemic) [Compound I-457]

IC50 [2]: < 100 nM
Structure (SMILES): COCCN1C[C@@H](NC(=O)Nc2c(C)c(-c3cnc(C4(O)COC4)nc3)nn2-c2ccccc2)[C@H](c2ccnc(F)c2)O1 (racemic) [Compound I-360]
